{"source": "ChEMBL document CHEMBL5247644", "about": "“Design and Synthesis of Sulfonium Derivatives: A Novel Class of α-Glucosidase Inhibitors with Potent In Vivo Antihyperglycemic Activities” (J Med Chem, 2023)", "key": {"[1]": {"target": "T1, Sucrase-isomaltase, intestinal (Rattus norvegicus, UniProt P23739)", "T1 sequence (P23739 1-1013 limits assumed)": "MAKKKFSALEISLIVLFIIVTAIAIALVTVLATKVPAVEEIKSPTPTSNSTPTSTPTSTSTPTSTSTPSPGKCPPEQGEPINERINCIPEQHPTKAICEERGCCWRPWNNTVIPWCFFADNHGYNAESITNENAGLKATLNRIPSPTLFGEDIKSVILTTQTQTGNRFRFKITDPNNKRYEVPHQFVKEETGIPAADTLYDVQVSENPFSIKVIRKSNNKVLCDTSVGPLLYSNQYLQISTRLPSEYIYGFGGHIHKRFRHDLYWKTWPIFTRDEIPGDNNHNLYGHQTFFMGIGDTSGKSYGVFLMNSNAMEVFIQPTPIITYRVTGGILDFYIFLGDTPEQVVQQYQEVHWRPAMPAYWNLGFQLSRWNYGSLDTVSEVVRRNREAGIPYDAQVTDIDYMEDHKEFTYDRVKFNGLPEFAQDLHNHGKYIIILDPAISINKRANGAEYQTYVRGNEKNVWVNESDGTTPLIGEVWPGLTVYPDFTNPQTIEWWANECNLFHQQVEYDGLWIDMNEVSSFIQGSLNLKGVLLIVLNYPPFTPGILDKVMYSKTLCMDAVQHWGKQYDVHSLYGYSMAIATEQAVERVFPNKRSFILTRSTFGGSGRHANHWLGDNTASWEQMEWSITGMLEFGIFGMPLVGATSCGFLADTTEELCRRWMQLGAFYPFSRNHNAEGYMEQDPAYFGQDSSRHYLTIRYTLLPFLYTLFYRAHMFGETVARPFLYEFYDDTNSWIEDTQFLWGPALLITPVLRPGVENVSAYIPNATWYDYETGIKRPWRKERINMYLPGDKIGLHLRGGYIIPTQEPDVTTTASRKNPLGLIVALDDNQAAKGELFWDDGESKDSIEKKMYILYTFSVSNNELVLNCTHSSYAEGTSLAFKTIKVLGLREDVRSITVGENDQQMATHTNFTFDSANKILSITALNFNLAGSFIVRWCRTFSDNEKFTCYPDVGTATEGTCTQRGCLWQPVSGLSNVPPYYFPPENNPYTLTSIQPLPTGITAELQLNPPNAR", "T1 sequence (P23739 1014-1841 limits assumed)": "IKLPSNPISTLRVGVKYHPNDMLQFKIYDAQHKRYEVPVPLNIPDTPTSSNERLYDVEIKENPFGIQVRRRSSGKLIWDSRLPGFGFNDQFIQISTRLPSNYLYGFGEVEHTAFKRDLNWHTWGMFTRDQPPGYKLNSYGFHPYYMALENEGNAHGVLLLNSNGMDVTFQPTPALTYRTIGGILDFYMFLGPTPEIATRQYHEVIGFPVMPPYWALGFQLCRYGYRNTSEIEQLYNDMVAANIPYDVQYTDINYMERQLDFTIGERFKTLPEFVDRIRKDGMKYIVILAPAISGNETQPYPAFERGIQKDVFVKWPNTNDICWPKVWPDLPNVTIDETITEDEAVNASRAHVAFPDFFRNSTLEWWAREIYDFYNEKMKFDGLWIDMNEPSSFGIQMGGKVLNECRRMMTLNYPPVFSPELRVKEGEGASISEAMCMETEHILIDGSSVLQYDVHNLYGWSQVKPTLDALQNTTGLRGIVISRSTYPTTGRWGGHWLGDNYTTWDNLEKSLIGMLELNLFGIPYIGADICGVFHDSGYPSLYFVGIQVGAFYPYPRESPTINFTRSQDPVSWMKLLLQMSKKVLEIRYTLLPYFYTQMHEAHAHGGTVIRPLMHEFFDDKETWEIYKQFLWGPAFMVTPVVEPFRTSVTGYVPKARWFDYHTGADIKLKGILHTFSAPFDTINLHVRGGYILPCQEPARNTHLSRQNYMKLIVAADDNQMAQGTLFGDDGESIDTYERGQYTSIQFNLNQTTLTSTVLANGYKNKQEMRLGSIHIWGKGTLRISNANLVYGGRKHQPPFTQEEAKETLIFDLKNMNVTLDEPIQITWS", "experiment": "Binding affinity to sucrase in rat small intestinal brush border membrane vesicles assessed as inhibition constant using sucrose as substrate incubated for 30 mins by glucose-oxidase method", "format": "cell membranes, Small intestine, Membrane vesicle"}, "[2]": {"target": "Lysosomal alpha-glucosidase (Rattus norvegicus) (UniProt Q6P7A9)", "sequence (Q6P7A9 whole entry)": "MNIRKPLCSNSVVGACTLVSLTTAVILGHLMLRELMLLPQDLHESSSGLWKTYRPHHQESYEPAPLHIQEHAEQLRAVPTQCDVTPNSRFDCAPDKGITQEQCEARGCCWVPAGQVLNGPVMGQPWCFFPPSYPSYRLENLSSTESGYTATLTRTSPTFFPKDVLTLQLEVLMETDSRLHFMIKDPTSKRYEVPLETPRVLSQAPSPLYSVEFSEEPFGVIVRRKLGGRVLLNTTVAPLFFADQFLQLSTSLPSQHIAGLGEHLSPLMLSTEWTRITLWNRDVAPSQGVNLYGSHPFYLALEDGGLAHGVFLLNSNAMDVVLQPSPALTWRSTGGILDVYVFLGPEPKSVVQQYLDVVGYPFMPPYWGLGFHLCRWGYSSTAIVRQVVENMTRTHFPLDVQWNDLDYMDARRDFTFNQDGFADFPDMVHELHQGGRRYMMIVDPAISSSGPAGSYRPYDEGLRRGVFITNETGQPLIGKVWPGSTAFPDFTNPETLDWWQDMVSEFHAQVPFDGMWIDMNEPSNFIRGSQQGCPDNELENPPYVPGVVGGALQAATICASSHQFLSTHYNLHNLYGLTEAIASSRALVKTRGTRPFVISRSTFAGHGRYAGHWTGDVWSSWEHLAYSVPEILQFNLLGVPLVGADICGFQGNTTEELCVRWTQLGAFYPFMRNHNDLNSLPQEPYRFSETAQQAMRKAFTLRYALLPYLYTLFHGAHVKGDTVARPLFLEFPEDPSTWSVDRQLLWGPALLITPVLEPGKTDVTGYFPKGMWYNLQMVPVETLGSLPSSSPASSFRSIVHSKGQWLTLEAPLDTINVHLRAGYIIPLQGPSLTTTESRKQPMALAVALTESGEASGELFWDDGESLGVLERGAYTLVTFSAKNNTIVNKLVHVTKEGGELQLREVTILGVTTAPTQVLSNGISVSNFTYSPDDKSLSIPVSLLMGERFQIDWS", "experiment": "Potency index, ratio of neoponkoranol IC50 to test compound IC50 for inhibition of maltase in rat small intestinal brush border membrane vesicles using maltose as substrate incubated for 30 mins by glucose-oxidase method", "format": "cell membranes", "settings": "Small intestine, Membrane vesicle"}, "[3]": {"target": "Sucrase-isomaltase, intestinal (Rattus norvegicus) (UniProt P23739)", "sequence (P23739 1-1013 limits assumed)": "as the sequence (P23739 1-1013 limits assumed) above", "sequence (P23739 1014-1841 limits assumed)": "as the sequence (P23739 1014-1841 limits assumed) above", "experiment": "Potency index, ratio of neoponkoranol IC50 to test compound IC50 for inhibition of sucrase in rat small intestinal brush border membrane vesicles using sucrose as substrate incubated for 30 mins by glucose-oxidase method", "format": "cell membranes", "settings": "Small intestine, Membrane vesicle"}, "[4]": {"experiment": "Inhibition of maltase in rat small intestinal brush border membrane vesicles using maltose as substrate incubated for 30 mins by glucose-oxidase method", "format": "cell membranes, Small intestine, Membrane vesicle"}, "[5]": {"target": "T1, Sucrase-isomaltase, intestinal", "experiment": "Inhibition of sucrase in rat small intestinal brush border membrane vesicles using sucrose as substrate incubated for 30 mins by glucose-oxidase method", "format": "cell membranes, Small intestine, Membrane vesicle"}, "[6]": {"tested_on": "Rattus norvegicus", "experiment": "Antihyperglycemic activity in fasted rat assessed as decrease in AUC of blood glucose level at 1 mg/kg measured for 15 to 60 mins by maltose loading test relative to control", "format": "functional", "set-up": "scale not given: the % may be the effect or the level left", "settings": "time 15-60 min"}, "[7]": {"tested_on": "Rattus norvegicus", "experiment": "Antihyperglycemic activity in fasted rat assessed as decrease in blood glucose level at 1 mg/kg measured after 30 mins by maltose loading test relative to control", "format": "functional", "set-up": "scale not given: the % may be the effect or the level left", "settings": "0.5 h"}, "[8]": {"tested_on": "Rattus norvegicus", "experiment": "Antihyperglycemic activity in fasted rat assessed as decrease in blood glucose level at 1 mg/kg measured after 15 mins by maltose loading test relative to control", "format": "functional", "set-up": "scale not given: the % may be the effect or the level left", "settings": "0.25 h"}, "[9]": {"tested_on": "Rattus norvegicus", "experiment": "Antihyperglycemic activity in fasted rat assessed as decrease in blood glucose level at 1 mg/kg measured after 60 mins by maltose loading test relative to control", "format": "functional", "set-up": "scale not given: the % may be the effect or the level left"}, "[10]": {"target": "Lysosomal alpha-glucosidase (Rattus norvegicus) (UniProt Q6P7A9)", "experiment": "Potency index, ratio of acarbose IC50 to test compound IC50 for inhibition of maltase in rat small intestinal brush border membrane vesicles using maltose as substrate incubated for 30 mins by glucose-oxidase method", "format": "cell membranes", "settings": "Small intestine, Membrane vesicle"}, "[11]": {"target": "Lysosomal alpha-glucosidase (Rattus norvegicus) (UniProt Q6P7A9)", "experiment": "Potency index, ratio of voglibose IC50 to test compound IC50 for inhibition of maltase in rat small intestinal brush border membrane vesicles using maltose as substrate incubated for 30 mins by glucose-oxidase method", "format": "cell membranes", "settings": "Small intestine, Membrane vesicle"}, "[12]": {"target": "Sucrase-isomaltase, intestinal (Rattus norvegicus) (UniProt P23739)", "experiment": "Competitive inhibition of sucrase in rat small intestinal brush border membrane vesicles using sucrose as substrate incubated for 30 mins by Lineweaver-Burk plot analysis", "format": "cell membranes", "settings": "Small intestine, Membrane vesicle"}, "[13]": {"target": "Lysosomal alpha-glucosidase (Rattus norvegicus) (UniProt Q6P7A9)", "experiment": "Competitive inhibition of maltase in rat small intestinal brush border membrane vesicles using maltose as substrate incubated for 30 mins by Lineweaver-Burk plot analysis", "format": "cell membranes", "settings": "Small intestine, Membrane vesicle"}, "[14]": {"tested_on": "Mus musculus", "experiment": "Antihyperglycemic activity in overnight fasted ICR mouse assessed as decrease in blood glucose level at 10 mg/kg, IG administered via tube and measured after 60 mins by sucrose loading test relative to control", "format": "functional", "set-up": "scale not given: the % may be the effect or the level left", "settings": "1 h"}, "[15]": {"tested_on": "Mus musculus", "experiment": "Antihyperglycemic activity in overnight fasted ICR mouse assessed as decrease in blood glucose level at 1 mg/kg, IG administered via tube and measured after 30 mins by sucrose loading test relative to control", "format": "functional", "set-up": "scale not given: the % may be the effect or the level left", "settings": "0.5 h"}, "[16]": {"tested_on": "Mus musculus", "experiment": "Antihyperglycemic activity in overnight fasted ICR mouse assessed as decrease in AUC of blood glucose level at 1 mg/kg, IG administered via tube and measured after 15 to 60 mins by sucrose loading test relative to control", "format": "functional", "set-up": "scale not given: the % may be the effect or the level left", "settings": "time 15-60 min"}, "[17]": {"tested_on": "Mus musculus", "experiment": "Antihyperglycemic activity in overnight fasted ICR mouse assessed as decrease in blood glucose level at 1 mg/kg, IG administered via tube and measured after 15 mins by sucrose loading test relative to control", "format": "functional", "set-up": "scale not given: the % may be the effect or the level left", "settings": "0.25 h"}, "[18]": {"tested_on": "Mus musculus", "experiment": "Antihyperglycemic activity in overnight fasted ICR mouse assessed as decrease in AUC of blood glucose level at 10 mg/kg, IG administered via tube and measured after 15 to 60 mins by sucrose loading test relative to control", "format": "functional", "set-up": "scale not given: the % may be the effect or the level left", "settings": "time 15-60 min"}, "[19]": {"tested_on": "Mus musculus", "experiment": "Antihyperglycemic activity in overnight fasted ICR mouse assessed as decrease in blood glucose level at 1 mg/kg, IG administered via tube and measured after 60 mins by sucrose loading test relative to control", "format": "functional", "set-up": "scale not given: the % may be the effect or the level left"}, "[20]": {"tested_on": "Mus musculus", "experiment": "Antihyperglycemic activity in overnight fasted ICR mouse assessed as decrease in blood glucose level at 10 mg/kg, IG administered via tube and measured after 15 mins by sucrose loading test relative to control", "format": "functional", "set-up": "scale not given: the % may be the effect or the level left", "settings": "0.25 h"}, "[21]": {"tested_on": "Mus musculus", "experiment": "Antihyperglycemic activity in overnight fasted ICR mouse assessed as decrease in blood glucose level at 10 mg/kg, IG administered via tube and measured after 30 mins by sucrose loading test relative to control", "format": "functional", "set-up": "scale not given: the % may be the effect or the level left", "settings": "0.5 h"}}, "note": "Activity calls are given as the source filed them. The calls are words filed in the database; no cut-off is given here."}
{"smiles": "OC[C@@H]1[C@@H](O)[C@H](O)C[S@@+]1C[C@@H](O)[C@H]1OC(c2ccccc2)OC[C@H]1O", "note": "(stereo not given in full)", "values": [{"measurement": "Ki", "setting": "[1]", "result": 0.758, "unit": "µM"}, {"measurement": "Ratio IC50", "setting": "[2]", "result": 10}, {"measurement": "Ratio IC50", "setting": "[3]", "result": 5}, {"measurement": "IC50", "setting": "[4]", "result": 0.83, "unit": "µM"}, {"measurement": "IC50", "setting": "[5]", "result": 0.42, "unit": "µM"}]}
{"smiles": "OC[C@@H]1[C@@H](O)[C@H](O)C[S@@+]1C[C@@H](O)[C@H]1OC(c2cccc(F)c2)OC[C@H]1O", "note": "(stereo not given in full)", "values": [{"measurement": "IC50", "setting": "[4]", "result": 1.7, "unit": "µM"}, {"measurement": "IC50", "setting": "[5]", "result": 0.7, "unit": "µM"}]}
{"smiles": "O=[N+]([O-])c1cccc(C2OC[C@@H](O)[C@@H]([C@H](O)C[S@+]3C[C@@H](O)[C@H](O)[C@H]3CO)O2)c1", "note": "(stereo not given in full)", "values": [{"measurement": "IC50", "setting": "[4]", "result": 6.7, "unit": "µM"}, {"measurement": "IC50", "setting": "[5]", "result": 3.4, "unit": "µM"}]}
{"smiles": "OC[C@@H]1[C@@H](O)[C@H](O)C[S@@+]1C[C@@H](O)[C@H]1OC(c2cccc(Cl)c2)OC[C@H]1O", "note": "(stereo not given in full)", "values": [{"measurement": "IC50", "setting": "[4]", "result": 3.1, "unit": "µM"}, {"measurement": "IC50", "setting": "[5]", "result": 1.9, "unit": "µM"}]}
{"smiles": "OCC(CO)N[C@H]1C[C@](O)(CO)[C@@H](O)[C@H](O)[C@H]1O", "note": "[VOGLIBOSE]", "values": [{"measurement": "Activity", "setting": "[6]", "result": 41.1, "unit": "%"}, {"measurement": "Activity", "setting": "[7]", "result": 55.1, "unit": "%"}, {"measurement": "Activity", "setting": "[8]", "result": 50, "unit": "%"}, {"measurement": "Activity", "setting": "[9]", "result": 43.3, "unit": "%"}]}
{"smiles": "OC[C@@H]1[C@@H](O)[C@H](O)C[S@@+]1C[C@@H](O)[C@H]1OC(c2ccc(F)cc2)OC[C@H]1O", "note": "(stereo not given in full)", "values": [{"measurement": "IC50", "setting": "[4]", "result": 3, "unit": "µM"}, {"measurement": "IC50", "setting": "[5]", "result": 2.5, "unit": "µM"}]}
{"smiles": "Cl.O=[N+]([O-])c1ccccc1C1OC[C@@H](O)[C@@H]([C@H](O)C[S@+]2C[C@@H](O)[C@H](O)[C@H]2CO)O1", "note": "(stereo not given in full)", "values": [{"measurement": "Ki", "setting": "[1]", "result": 0.352, "unit": "µM"}, {"measurement": "Ratio IC50", "setting": "[2]", "result": 40}, {"measurement": "Ratio IC50", "setting": "[10]", "result": 16}, {"measurement": "Ratio IC50", "setting": "[11]", "result": 7.5}, {"measurement": "inhibition", "setting": "[12]", "result": "Active"}, {"measurement": "inhibition", "setting": "[13]", "result": "Active"}, {"measurement": "Activity", "setting": "[14]", "result": 54.6, "unit": "%"}, {"measurement": "Activity", "setting": "[15]", "result": 48, "unit": "%"}, {"measurement": "Activity", "setting": "[16]", "result": 38.1, "unit": "%"}, {"measurement": "Ratio IC50", "setting": "[3]", "result": 20}, {"measurement": "IC50", "setting": "[4]", "result": 0.2, "unit": "µM"}, {"measurement": "Activity", "setting": "[6]", "result": 45.6, "unit": "%"}, {"measurement": "Activity", "setting": "[7]", "result": 54.6, "unit": "%"}, {"measurement": "Activity", "setting": "[17]", "result": 41.1, "unit": "%"}, {"measurement": "IC50", "setting": "[5]", "result": 0.1, "unit": "µM"}, {"measurement": "Activity", "setting": "[18]", "result": 50.1, "unit": "%"}, {"measurement": "Activity", "setting": "[8]", "result": 50, "unit": "%"}, {"measurement": "Activity", "setting": "[19]", "result": 43.9, "unit": "%"}, {"measurement": "Activity", "setting": "[20]", "result": 49, "unit": "%"}, {"measurement": "Activity", "setting": "[21]", "result": 60, "unit": "%"}, {"measurement": "Activity", "setting": "[9]", "result": 48.3, "unit": "%"}]}
{"smiles": "OC[C@@H]1[C@@H](O)[C@H](O)C[S@@+]1C[C@@H](O)[C@H]1OC(c2ccc(Cl)cc2)OC[C@H]1O", "note": "(stereo not given in full)", "values": [{"measurement": "IC50", "setting": "[4]", "result": 4, "unit": "µM"}, {"measurement": "IC50", "setting": "[5]", "result": 2.3, "unit": "µM"}]}
